Source: US20250320205A1, “STAT6 DEGRADERS” (Gilead Sciences, Inc., priority 2024, published 2025)

Each compound was assayed against T1, STAT6 (Homo sapiens, UniProt P42226) (assay: STAT6 Degrader Assay (HiBiT based, HeLa LgBiT clone 4.14 cells)). Details: HeLa; maximal STAT6 degradation.
T1 construct: These cells express endogenous STAT6; host or cells: HeLa LgBiT clone 4.14 (CRISPR knock-in of HiBiT into the endogenous STAT6 gene)
T1 sequence (P42226 1-847): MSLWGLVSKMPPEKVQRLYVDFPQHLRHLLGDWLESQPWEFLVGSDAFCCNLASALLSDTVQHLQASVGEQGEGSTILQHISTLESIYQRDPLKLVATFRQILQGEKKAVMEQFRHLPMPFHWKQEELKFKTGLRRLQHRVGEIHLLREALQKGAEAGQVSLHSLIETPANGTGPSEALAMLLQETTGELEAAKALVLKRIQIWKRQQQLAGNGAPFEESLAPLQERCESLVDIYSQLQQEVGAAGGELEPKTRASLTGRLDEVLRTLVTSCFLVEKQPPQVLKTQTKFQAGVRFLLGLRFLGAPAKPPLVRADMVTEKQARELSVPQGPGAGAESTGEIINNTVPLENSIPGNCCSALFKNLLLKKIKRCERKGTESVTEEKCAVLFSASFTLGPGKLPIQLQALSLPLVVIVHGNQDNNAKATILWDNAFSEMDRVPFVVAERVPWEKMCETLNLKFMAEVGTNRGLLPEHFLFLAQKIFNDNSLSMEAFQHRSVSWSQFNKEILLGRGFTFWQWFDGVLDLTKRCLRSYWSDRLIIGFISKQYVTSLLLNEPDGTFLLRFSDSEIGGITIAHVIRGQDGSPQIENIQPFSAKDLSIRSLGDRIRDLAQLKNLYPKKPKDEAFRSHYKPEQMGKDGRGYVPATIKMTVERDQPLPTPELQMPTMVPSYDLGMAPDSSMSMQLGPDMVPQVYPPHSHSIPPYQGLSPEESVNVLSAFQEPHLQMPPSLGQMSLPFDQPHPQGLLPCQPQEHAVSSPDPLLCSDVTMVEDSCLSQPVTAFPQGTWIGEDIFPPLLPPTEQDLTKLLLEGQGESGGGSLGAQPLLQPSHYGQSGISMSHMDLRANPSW
Type: cell-based
Method: This was a HiBit based assay. A HeLa cell line stably transfected with a small protein, LgBit (Large Bit) was obtained from Promega. These cells express endogenous STAT6. A small 11 amino acid gene sequence (HiBiT) was inserted in the STAT6 gene using CRISPR technology. Once STAT6 protein is expressed in the cells, the HiBiT sequence will bind the LgBit in the cells resulting in a functional NanoBiT protein, giving a luminescent tag to STAT6. Single cell clones were prepared and the clone 4.14 was selected for the assay based on that clone showing high luminescence, high STAT6 phosphorylation upon stimulation with IL-4, and inhibition of luminescence when cells were treated with STAT6 siRNA. HeLa LgBiT clone 4.14 cells were suspended in DMEM with 10% FCS, 1% Pen/Strep, Na-pyrovate and Hygromycin B, at a concentration of 1.25*105 cells pr mL. 5000 cells were added pr well of a 384 well plate and 20 nL of compound was added by Echo® liquid handler. NN6394A (terfenadine, a toxic compound) was added to control wells at 50 μM concentration to establish the assay window. In these wells the cells are dead which equals 100% degradation of STAT6. After 4-24 h of incubation at 37° C. under 5% CO2/95% air, 5 μL substrate (Nano-GLO®) was added to the wells and the plates were centrifuged and incubated for 0.5 h. The luminescence in the wells as a measure of non-degraded STAT6 was measured in a plate reader (BMG Pherastar FSX). The measured DC50 (in nM) was determined.
`CNc1ccn(-c2ccnc3c2cc(CN2CCC(c4c(C)cc(C(=O)N5CCC(CN6CCN(c7ccc(NC8CCC(=O)NC8=O)cc7F)CC6)CC5)cc4F)CC2)n3C)c(=O)c1` (stereo not drawn) [Example 2g60, 3-((3-fluoro-4-(4-((1-(3-fluoro-5-methyl-4-(1-((1-methyl-4-(4-(methylamino)-2-oxopyridin-1(2H)-yl)-1H-pyrrolo[2,3-b]pyridin-2-yl)-methyl)piperidin-4-yl)benzo-yl)piperidin-4-yl)methyl)-piperazin-1-yl)phenyl)amino)-piperidine-2,6-dione] was tested, and the Emax was less than 20%. Compound `Cc1cc(C(=O)N2CCC(CN3CCN(c4ncc(NC5CCC(=O)NC5=O)cc4F)CC3)CC2)cc(F)c1C1=CCN([C@@H](C)c2cc3c(-n4ccc5c(c4=O)CCN5)ccnc3n2C)CC1` (stereo partly drawn) [Example 2g49, 3-((5-fluoro-6-(4-((1-(3-fluoro-5-methyl-4-(1-((S)-1-(1-methyl-4-(4-oxo-1,2,3,4-tetrahydro-5H-pyrrolo[3,2-c]pyridin-5-yl)-1H-pyrrolo [2,3-b]pyridin-2-yl)ethyl)-1,2,3,6-tetrahydropyridin-4-yl)benzoyl)piperidin-4-yl)-methyl)piperazin-1-yl)-pyridin-3-yl)amino)piperi-dine-2,6-dione] has an Emax of less than 20%. `C[C@@H](c1cc2c(-n3cc(F)c4c(c3=O)CCN4)ccnc2n1C)N1CC=C(c2c(F)cc(C(=O)N3CCC(CN4CCN(c5ccc(NC6CCC(=O)NC6=O)cc5F)CC4)CC3)cc2F)CC1` (stereo partly drawn) [Example 2g131, 3-((4-(4-((1-(3,5-difluoro-4-(1-((S)-1-(4-(7-fluoro-4-oxo-1,2,3,4-tetrahydro-5H-pyrrolo [3,2-c]pyridin-5-yl)-1-methyl-1H-pyrrolo[2,3-b]pyridin-2-yl)ethyl)-1,2,3,6-tetrahydro-pyridin-4-yl)benzoyl)piper-idin-4-yl)methyl)piperazin-1-yl)-3-fluorophenyl)amino)-piperidine-2,6-dione] showed an Emax of 50 to 60%.

Same assay, conditions: geometric mean across assay runs and compound batches; DC50 provided for test compounds with >80% Emax; read-out: STAT6 degradation DC50
`COc1cc(C2CCN(Cc3cc4n(n3)CCN(C(=O)c3ccc(C5CCN([C@@H](C)c6cc7c(-n8ccc9c(c8=O)CCN9)ccnc7n6C)CC5)cc3)C4)CC2)ccc1NC1CCC(=O)NC1=O` (stereo partly drawn) [Example 2g30, 3-((2-methoxy-4-(1-((5-(4-(1-((S)-1-(1-methyl-4-(4-oxo-1,2,3,4-tetrahydro-5H-pyrrolo [3,2-c]pyridin-5-yl)-1H-pyrrolo[2,3-b]pyridin-2-yl)-ethyl)piperidin-4-yl)benzoyl)-4,5,6,7-tetrahydropyrazolo [1,5-a]pyrazin-2-yl)methyl)-piperidin-4-yl)phenyl)amino)-piperidine-2,6-dione] gave a DC50 of 2.6 nM. For `Cc1cc(C(=O)N2CCC(CN3CCN(c4ccc(N[C@@H]5CCC(=O)NC5=O)cc4F)C[C@H]3C)CC2)cc(F)c1C1=CCN([C@@H](C)c2cc3c(-n4ccc5c(c4=O)CCN5)ccnc3n2C)CC1` (single isomer, unassigned) [Example 2g24], the DC50 was 3 nM. `CNc1ccn(-c2ccnc3c2cc([C@H](C)N2CC=C(c4c(C)cc(C(=O)N5CCC(CN6CCN(c7ccc(N[C@H]8CCC(=O)NC8=O)cc7F)CC6)CC5)cc4F)CC2)n3C)c(=O)c1` (single isomer, unassigned) [Example 2g39] gave a DC50 of 5 nM. For `CNc1ccn(-c2ccnc3c2cc([C@H](C)N2CC=C(c4c(C)cc(C(=O)N5CCC(CN6CCN(c7ccc(N[C@@H]8CCC(=O)NC8=O)cc7F)C[C@@H]6C)CC5)cc4F)CC2)n3C)c(=O)c1` (single isomer, unassigned) [Example 2g99], the DC50 was 22.2 nM. `CNc1ccn(-c2ccnc3c2cc([C@H](C)N2CC=C(c4c(C)cc(C(=O)N5CCC(CN6CCN(c7ccc(N[C@@H]8CCC(=O)NC8=O)cc7F)C[C@H]6C)CC5)cc4F)CC2)n3C)c(=O)c1` (single isomer, unassigned) [Example 2g47] was tested, and the DC50 was 3.3 nM. `CNc1cc(=O)n(-c2ccnc3c2cc(CN2CCC(c4c(F)cc(C(=O)N5CCC(CN6CCN(c7ccc(N[C@H]8CCC(=O)NC8=O)cc7F)CC6)CC5)cc4F)CC2)n3C)cc1F` (single isomer, unassigned) [Example 2g34] was tested, and the DC50 was 15.1 nM.
